Data: the NIST ThermoML archive (doi:10.1016/j.jct.2005.03.020)
Numbers after ± are expanded uncertainties.

Assay: xn = mol fraction of the nth substance listed
Conditions: 298.15 K, 101.33 kPa, Liquid

Molecule ClCCCCl [1,3-dichloropropane] + CCOC(=O)CC has a mass density (x2 = 0.0533) of 1159.49 ± 0.81 kg/m3, a mass density (x2 = 0.1039) of 1141.98 ± 0.78 kg/m3 and a mass density (x2 = 0.1552) of 1124.63 ± 0.74 kg/m3. The mass density (x2 = 0.2595) was 1090.43 ± 0.68 kg/m3, the mass density (x2 = 0.3141) was 1073.08 ± 0.65 kg/m3 and the mass density (x2 = 0.3691) was 1056.04 ± 0.62 kg/m3. For the same molecule, the mass density (x2 = 0.4264) was 1038.67 ± 0.59 kg/m3, the mass density (x2 = 0.4849) was 1021.36 ± 0.57 kg/m3 and the mass density (x2 = 0.6033) was 987.47 ± 0.54 kg/m3. It also gave a mass density (x2 = 0.666) of 970.14 ± 0.55 kg/m3, a mass density (x2 = 0.7288) of 953.17 ± 0.57 kg/m3 and a mass density (x2 = 0.7937) of 935.99 ± 0.58 kg/m3. For the same molecule, the mass density (x2 = 0.861) was 918.65 ± 0.6 kg/m3 and the mass density (x2 = 0.9271) was 901.62 ± 0.62 kg/m3.

With ClCCCCl [1,3-dichloropropane] + CCOC(C)=O the mass density (x2 = 0.0582) was 1160.94 ± 0.8 kg/m3, the mass density (x2 = 0.1136) was 1144.62 ± 0.76 kg/m3 and the mass density (x2 = 0.1719) was 1127.58 ± 0.71 kg/m3. For the same molecule, the mass density (x2 = 0.2292) was 1110.81 ± 0.67 kg/m3, the mass density (x2 = 0.2869) was 1094.08 ± 0.62 kg/m3 and the mass density (x2 = 0.3444) was 1077.42 ± 0.58 kg/m3. It also gave a mass density (x2 = 0.4017) of 1061.01 ± 0.54 kg/m3, a mass density (x2 = 0.4609) of 1044.12 ± 0.5 kg/m3 and a mass density (x2 = 0.5208) of 1027.15 ± 0.46 kg/m3. It also gave a mass density (x2 = 0.5839) of 1009.34 ± 0.42 kg/m3, a mass density (x2 = 0.6423) of 992.92 ± 0.4 kg/m3 and a mass density (x2 = 0.7017) of 976.39 ± 0.4 kg/m3. The mass density (x2 = 0.7599) was 960.24 ± 0.41 kg/m3, the mass density (x2 = 0.8205) was 943.48 ± 0.43 kg/m3 and the mass density (x2 = 0.8803) was 927.01 ± 0.44 kg/m3. It also gave a mass density (x2 = 0.9389) of 911.03 ± 0.46 kg/m3.

For ClCCCCl [1,3-dichloropropane] + CCOC=O, the mass density (x2 = 0.076) was 1161.06 ± 0.88 kg/m3, the mass density (x2 = 0.1432) was 1145.36 ± 0.91 kg/m3 and the mass density (x2 = 0.2073) was 1130.02 ± 0.95 kg/m3. It also gave a mass density (x2 = 0.2696) of 1114.94 ± 0.98 kg/m3, a mass density (x2 = 0.3338) of 1099.05 ± 1 kg/m3 and a mass density (x2 = 0.394) of 1083.9 ± 1.1 kg/m3. The mass density (x2 = 0.4558) was 1068.05 ± 1.1 kg/m3, the mass density (x2 = 0.5152) was 1052.57 ± 1.1 kg/m3 and the mass density (x2 = 0.5731) was 1037.18 ± 1.2 kg/m3. For the same molecule, the mass density (x2 = 0.6297) was 1021.91 ± 1.2 kg/m3, the mass density (x2 = 0.6862) was 1006.34 ± 1.2 kg/m3 and the mass density (x2 = 0.7413) was 990.94 ± 1.3 kg/m3. For the same molecule, the mass density (x2 = 0.794) was 975.98 ± 1.3 kg/m3, the mass density (x2 = 0.8475) was 960.54 ± 1.4 kg/m3 and the mass density (x2 = 0.8994) was 945.31 ± 1.4 kg/m3. The mass density (x2 = 0.9494) was 930.3 ± 1.4 kg/m3.

With ClCCCCCl [1,4-dichlorobutane] + CCOC(=O)CC the mass density (x2 = 0.0587) was 1117.82 ± 0.73 kg/m3, the mass density (x2 = 0.1153) was 1103.37 ± 0.7 kg/m3 and the mass density (x2 = 0.1718) was 1088.99 ± 0.68 kg/m3. The mass density (x2 = 0.2299) was 1074.24 ± 0.65 kg/m3, the mass density (x2 = 0.2859) was 1060.13 ± 0.63 kg/m3 and the mass density (x2 = 0.3447) was 1045.32 ± 0.6 kg/m3. For the same molecule, the mass density (x2 = 0.403) was 1030.76 ± 0.58 kg/m3, the mass density (x2 = 0.4615) was 1016.16 ± 0.56 kg/m3 and the mass density (x2 = 0.5233) was 1000.86 ± 0.54 kg/m3. The mass density (x2 = 0.5825) was 986.22 ± 0.54 kg/m3, the mass density (x2 = 0.6382) was 972.47 ± 0.55 kg/m3 and the mass density (x2 = 0.698) was 957.78 ± 0.56 kg/m3. The mass density (x2 = 0.8187) was 928.2 ± 0.59 kg/m3, the mass density (x2 = 0.8774) was 913.87 ± 0.6 kg/m3 and the mass density (x2 = 0.9378) was 899.14 ± 0.62 kg/m3.

ClCCCCCl [1,4-dichlorobutane] + CCOC=O gave a mass density (x2 = 0.0818) of 1119.67 ± 0.81 kg/m3, a mass density (x2 = 0.1583) of 1106.59 ± 0.86 kg/m3 and a mass density (x2 = 0.2305) of 1093.6 ± 0.91 kg/m3. For the same molecule, the mass density (x2 = 0.2967) was 1081.3 ± 0.95 kg/m3, the mass density (x2 = 0.3635) was 1068.33 ± 1 kg/m3 and the mass density (x2 = 0.4271) was 1055.54 ± 1.1 kg/m3. For the same molecule, the mass density (x2 = 0.491) was 1042.19 ± 1.1 kg/m3, the mass density (x2 = 0.6081) was 1016.39 ± 1.2 kg/m3 and the mass density (x2 = 0.6615) was 1003.97 ± 1.2 kg/m3. For the same molecule, the mass density (x2 = 0.7146) was 991.26 ± 1.2 kg/m3, the mass density (x2 = 0.7671) was 978.22 ± 1.3 kg/m3 and the mass density (x2 = 0.816) was 965.61 ± 1.3 kg/m3. The mass density (x2 = 0.8633) was 952.97 ± 1.4 kg/m3, the mass density (x2 = 0.91) was 940.24 ± 1.4 kg/m3 and the mass density (x2 = 0.9551) was 927.47 ± 1.4 kg/m3.

ClCCCCCCl [1,5-dichloropentane] + CCOC(=O)CC gave a mass density (x2 = 0.0734) of 1081.12 ± 0.66 kg/m3, a mass density (x2 = 0.129) of 1070.38 ± 0.65 kg/m3 and a mass density (x2 = 0.1956) of 1057.38 ± 0.62 kg/m3. The mass density (x2 = 0.2575) was 1045.16 ± 0.6 kg/m3, the mass density (x2 = 0.3202) was 1032.63 ± 0.58 kg/m3 and the mass density (x2 = 0.4361) was 1008.96 ± 0.55 kg/m3. The mass density (x2 = 0.5001) was 995.63 ± 0.54 kg/m3, the mass density (x2 = 0.5582) was 983.34 ± 0.55 kg/m3 and the mass density (x2 = 0.6155) was 971.03 ± 0.55 kg/m3. For the same molecule, the mass density (x2 = 0.6735) was 958.42 ± 0.56 kg/m3, the mass density (x2 = 0.7283) was 946.34 ± 0.57 kg/m3 and the mass density (x2 = 0.785) was 933.66 ± 0.58 kg/m3. For the same molecule, the mass density (x2 = 0.8394) was 921.33 ± 0.6 kg/m3, the mass density (x2 = 0.8926) was 909.15 ± 0.61 kg/m3 and the mass density (x2 = 0.9451) was 896.94 ± 0.62 kg/m3.

ClCCCCCCl [1,5-dichloropentane] + CCOC(C)=O gave a mass density (x2 = 0.078) of 1082.84 ± 0.65 kg/m3, a mass density (x2 = 0.1498) of 1071.08 ± 0.61 kg/m3 and a mass density (x2 = 0.2187) of 1059.41 ± 0.58 kg/m3. It also gave a mass density (x2 = 0.2869) of 1047.48 ± 0.54 kg/m3, a mass density (x2 = 0.3508) of 1035.92 ± 0.51 kg/m3 and a mass density (x2 = 0.4146) of 1024.01 ± 0.48 kg/m3. For the same molecule, the mass density (x2 = 0.5355) was 1000.44 ± 0.41 kg/m3, the mass density (x2 = 0.5943) was 988.46 ± 0.41 kg/m3 and the mass density (x2 = 0.6527) was 976.18 ± 0.41 kg/m3. The mass density (x2 = 0.7039) was 965.12 ± 0.41 kg/m3, the mass density (x2 = 0.7557) was 953.57 ± 0.42 kg/m3 and the mass density (x2 = 0.8066) was 941.94 ± 0.43 kg/m3. For the same molecule, the mass density (x2 = 0.8572) was 930.03 ± 0.44 kg/m3, the mass density (x2 = 0.9059) was 918.17 ± 0.46 kg/m3 and the mass density (x2 = 0.9527) was 906.46 ± 0.47 kg/m3.

ClCCCCCCl [1,5-dichloropentane] + CCOC=O gave a mass density (x2 = 0.0925) of 1084.33 ± 0.76 kg/m3, a mass density (x2 = 0.173) of 1074.06 ± 0.82 kg/m3 and a mass density (x2 = 0.2529) of 1063.2 ± 0.88 kg/m3. The mass density (x2 = 0.3276) was 1052.35 ± 0.94 kg/m3, the mass density (x2 = 0.3957) was 1041.79 ± 0.99 kg/m3 and the mass density (x2 = 0.4618) was 1031.02 ± 1 kg/m3. The mass density (x2 = 0.5249) was 1020.19 ± 1.1 kg/m3, the mass density (x2 = 0.5835) was 1009.55 ± 1.1 kg/m3 and the mass density (x2 = 0.6395) was 998.87 ± 1.2 kg/m3. It also gave a mass density (x2 = 0.6917) of 988.42 ± 1.2 kg/m3, a mass density (x2 = 0.7415) of 977.92 ± 1.3 kg/m3 and a mass density (x2 = 0.7896) of 967.31 ± 1.3 kg/m3. It also gave a mass density (x2 = 0.836) of 956.62 ± 1.3 kg/m3, a mass density (x2 = 0.8791) of 946.24 ± 1.4 kg/m3 and a mass density (x2 = 0.9211) of 935.6 ± 1.4 kg/m3. For the same molecule, the mass density (x2 = 0.9595) was 925.4 ± 1.4 kg/m3.
